Measured values published in the supplement of paper PMC10307832.

Assays:
Experiment in all cases: relative viability (nuclei count vs DMSO), 5 days (fraction); higher = more cells survive
[1] = compound: C1CNCCC1C2=CC(=NN2)C3=CC=NC=C3 + C[C@@H](Oc1cc(-c2cnn(C3CCNCC3)c2)cnc1N)c1c(Cl)ccc(F)c1Cl [Crizotinib] (partner 1 µM)
Procedure, shortened: (§1)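 For relative viability, nuclei counts in treated wells were divided by those in vehicle wells. Lung cancer cell lines had been pin-tool dosed in 1536-well plates the day after seeding and cultured for 5 days, then fixed and stained in one step (final 0.05% Triton X-100, 1% formaldehyde, 1 ug/ml Hoechst) and imaged at 4×. Doses were one drug alone or a fixed anchor-drug dose plus five library-drug doses (not always all listed) in √10 steps, and values are duplicate-plate medians.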

[2] = compound: C1CNCCC1C2=CC(=NN2)C3=CC=NC=C3 + C[C@]1(O)C[C@@H](c2nc(-c3ccc4ccc(-c5ccccc5)nc4c3)c3c(N)nccn32)C1 [Linsitinib] (partner 1 µM)
Procedure, shortened: as §1

[3] = compound: C1CNCCC1C2=CC(=NN2)C3=CC=NC=C3 + Nc1ncn([C@H]2C[C@H](O)[C@@H](CO)O2)c(=O)n1 [Decitabine] (partner 2 µM)
Procedure, shortened: as §1

Tanzisertib + Bortezomib = compound: O[C@H]1CC[C@H](Nc2ncc3nc(Nc4c(F)cc(F)cc4F)n([C@H]4CCOC4)c3n2)CC1 [Tanzisertib] + CC(C)C[C@H](NC(=O)[C@H](Cc1ccccc1)NC(=O)c1cnccn1)B(O)O [Bortezomib] (partner 0.002 µM)
Procedure, shortened: as §1

Cell Line | relative viability ([1]; first compound 0.08 µM) | relative viability ([1]; first compound 0.8 µM) | relative viability ([1]; first compound 2.53 µM) | relative viability ([1]; first compound 8 µM) | relative viability ([2]; first compound 0.08 µM) | relative viability ([2]; first compound 0.8 µM) | relative viability ([2]; first compound 2.53 µM) | relative viability ([2]; first compound 8 µM) | relative viability ([3]; first compound 0.08 µM) | relative viability ([3]; first compound 0.8 µM) | relative viability ([3]; first compound 2.53 µM) | relative viability ([3]; first compound 8 µM) | relative viability (Tanzisertib + Bortezomib; first compound 0.08 µM) | relative viability (Tanzisertib + Bortezomib; first compound 0.253 µM) | relative viability (Tanzisertib + Bortezomib; first compound 0.8 µM) | relative viability (Tanzisertib + Bortezomib; first compound 2.53 µM) | relative viability (Tanzisertib + Bortezomib; first compound 8 µM)
HCC-44 | 0.889 | 0.908 | 0.842 | 0.839 | 0.66 | 0.595 | 0.698 | 0.684 | 0.957 | 0.989 | 0.961 | 0.942 | 0.934 | 0.938 | 0.912 | 0.936 | 0.999
HCC-78 | 0.369 |  | 0.399 | 0.381 | 0.446 |  | 0.513 | 0.61 | 0.677 |  | 0.637 | 0.743 | 0.485 | 0.436 | 0.548 | 0.416 | 0.62
HCC-366 | 0.462 | 0.559 | 0.551 | 0.536 | 0.55 | 0.756 | 0.712 | 0.622 | 0.266 | 0.353 | 0.373 | 0.366 | 1.08 | 1.03 | 1.1 | 0.995 | 1.01
HCC-827 | 0.979 | 0.932 | 1.01 | 0.883 | 0.992 | 0.963 | 1.05 | 0.956 | 0.294 | 0.302 | 0.297 | 0.336 | 0.952 | 1.06 | 1.12 | 1.04 | 0.701
HOP-62 | 0.682 | 1.11 | 0.942 | 0.978 | 0.892 | 1.12 | 1.19 | 1.08 | 0.226 | 0.234 | 0.205 | 0.201 | 0.803 | 0.974 | 1.01 | 0.726 | 0.704
IA-LM | 0.842 | 0.839 | 1.14 | 0.92 | 0.717 | 0.893 | 0.958 | 0.621 |  |  |  |  | 0.925 | 0.803 | 0.777 | 0.867 | 0.977
LC-2-ad | 0.491 | 0.478 | 0.445 | 0.456 | 0.805 | 0.825 | 0.909 | 0.869 | 0.682 | 0.791 | 0.868 | 0.789 | 1.05 | 1.08 | 1.05 | 1.09 | 1.01
LK-2 | 0.232 | 0.252 | 0.221 | 0.265 |  | 0.751 | 0.427 | 0.519 |  | 0.237 | 0.404 | 0.358 |  |  |  |  | 
NCI-H358 | 0.479 | 0.526 | 0.633 | 0.474 | 0.595 | 0.792 | 0.688 | 0.765 | 0.224 | 0.226 | 0.21 | 0.217 |  |  |  |  | 
NCI-H522 |  |  |  |  |  |  |  |  | 0.619 | 0.646 | 0.552 | 0.789 |  |  |  |  | 
NCI-H1299 | 0.991 | 1 | 0.99 | 0.9 | 0.987 | 1.14 | 1.05 | 0.924 |  |  |  |  | 1.03 | 1.02 | 1.07 | 1.08 | 1.13
NCI-H1395 |  |  |  |  | 1.02 | 0.886 | 1.24 | 0.977 | 0.705 | 0.714 | 0.751 | 0.755 |  |  |  |  | 
NCI-H1563 | 0.644 | 0.766 | 0.85 | 0.941 | 0.868 | 1.13 | 1.24 | 1.25 |  |  |  |  | 0.957 | 0.859 | 0.917 | 0.829 | 0.945
NCI-H1648 |  |  |  |  |  |  |  |  | 0.453 | 0.572 |  | 0.573 |  |  |  |  | 
NCI-H1650 | 0.43 | 1.08 | 1.07 | 0.963 |  |  |  |  | 0.216 | 0.49 | 0.399 | 0.509 | 0.192 | 0.217 | 0.201 | 0.195 | 0.182
NCI-H1703 | 0.823 | 0.813 | 0.824 | 1.01 | 0.79 | 0.858 | 0.928 | 0.852 |  |  |  |  | 0.328 | 0.326 | 0.293 | 0.377 | 0.248
NCI-H1793 |  |  |  |  | 0.67 | 0.669 | 0.922 | 0.876 | 0.338 |  | 0.489 | 0.626 |  |  |  |  | 
NCI-H1944 | 1.06 | 1.08 | 1.1 | 1.08 | 1.14 | 1.08 | 1.25 | 1.1 | 0.426 | 0.431 | 0.414 | 0.415 |  |  |  |  | 
NCI-H2170 | 1.04 | 1.23 | 1.42 | 1.15 |  |  |  |  | 0.442 | 0.446 | 0.487 | 0.529 |  |  |  |  | 
NCI-H2228 | 0.566 | 0.428 | 0.486 | 0.482 | 0.734 | 0.869 | 0.503 | 0.811 |  |  |  |  | 1.11 | 0.948 | 1.08 | 0.801 | 0.721
NCI-H2342 |  |  |  |  |  |  |  |  | 0.634 | 0.709 | 0.685 | 0.819 |  |  |  |  | 
SK-MES-1 | 1.03 | 0.995 | 0.992 | 0.94 | 1.07 | 1.1 | 1.15 | 0.953 | 0.29 | 0.436 | 0.397 | 0.339 |  |  |  |  | 
SW 900 |  |  |  |  |  |  |  |  | 0.418 |  | 0.424 | 0.475 |  |  |  |  | 
